Here are results for 14 molecules from patent publication US8338597B2, “Pyridones useful as inhibitors of kinases” (Vertex Pharmaceuticals Incorporated, priority 2004, dated 2012).

Common to all, as to format: biochemical
Test [1] has as its target T1, Itk (Homo sapiens, UniProt Q08881).
T1 sequence (Q08881 1-620): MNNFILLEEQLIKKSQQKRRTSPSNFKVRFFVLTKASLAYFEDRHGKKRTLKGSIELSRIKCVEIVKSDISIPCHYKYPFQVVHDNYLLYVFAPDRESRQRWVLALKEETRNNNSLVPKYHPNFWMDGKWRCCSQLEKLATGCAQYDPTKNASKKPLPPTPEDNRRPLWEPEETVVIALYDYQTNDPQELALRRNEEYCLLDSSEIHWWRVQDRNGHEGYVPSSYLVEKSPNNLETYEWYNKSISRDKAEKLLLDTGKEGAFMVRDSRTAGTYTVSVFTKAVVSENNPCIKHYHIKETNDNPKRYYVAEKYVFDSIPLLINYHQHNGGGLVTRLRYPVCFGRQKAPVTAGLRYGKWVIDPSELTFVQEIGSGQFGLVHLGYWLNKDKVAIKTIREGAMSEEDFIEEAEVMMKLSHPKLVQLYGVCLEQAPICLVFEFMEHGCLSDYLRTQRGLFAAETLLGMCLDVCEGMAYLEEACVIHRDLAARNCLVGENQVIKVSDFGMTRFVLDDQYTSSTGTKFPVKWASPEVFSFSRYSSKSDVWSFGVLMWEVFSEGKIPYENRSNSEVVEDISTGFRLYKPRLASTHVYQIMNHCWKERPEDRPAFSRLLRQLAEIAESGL
The test can be described thus: ITK inhibition assay, radioactive-phosphate incorporation. The settings on record: [γ-33P]ATP, SAM68 peptide, 25° C.

In the next test the target is T2, Rlk (Homo sapiens, UniProt P42681).
T2 sequence (P42681 1-527): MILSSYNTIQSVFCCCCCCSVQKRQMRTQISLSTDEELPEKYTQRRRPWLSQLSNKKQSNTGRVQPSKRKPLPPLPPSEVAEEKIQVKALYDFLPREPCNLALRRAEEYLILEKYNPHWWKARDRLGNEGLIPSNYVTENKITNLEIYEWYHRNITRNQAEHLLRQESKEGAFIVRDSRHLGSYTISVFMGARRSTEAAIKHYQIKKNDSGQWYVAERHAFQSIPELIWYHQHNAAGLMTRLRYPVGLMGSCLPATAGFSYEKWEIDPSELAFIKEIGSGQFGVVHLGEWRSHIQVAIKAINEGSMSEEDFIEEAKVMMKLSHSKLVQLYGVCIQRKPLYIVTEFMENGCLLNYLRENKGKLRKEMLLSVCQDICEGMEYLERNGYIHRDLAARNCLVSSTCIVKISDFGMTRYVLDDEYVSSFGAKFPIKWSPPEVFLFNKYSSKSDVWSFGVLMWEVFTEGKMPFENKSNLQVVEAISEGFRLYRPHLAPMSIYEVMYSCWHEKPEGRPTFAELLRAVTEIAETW
The test can be described thus: RLK inhibition assay, standard coupled enzyme assay. As to conditions: 100 μM ATP, 40 nM Rlk, 30° C. The protocol:
Compounds were screened for their ability to inhibit Rlk using a standard coupled enzyme assay (Fox et al., Protein Sci., (1998) 7, 2249). Assays were carried out in a mixture of 20 mM MOPS (pH 7.0), 10 mM MgCl2, 0.1% BSA and 1 mM DTT. Final substrate concentrations in the assay were 100 μM ATP (Sigma Chemicals) and 10 μM peptide (Poly Glu:Tyr 4:1). Assays were carried out at 30° C. and in the presence of 40 nM Rlk. Final concentrations of the components of the coupled enzyme system were 2.5 mM phosphoenolpyruvate, 300 μM NADH, 30 μg/ml pyruvate kinase and 10 μg/ml lactate dehydrogenase.
An assay stock buffer solution was prepared containing all of the reagents listed above, with the exception of ATP and the test compound of interest. 60 μl of the stock solution was placed in a 96 well plate followed by addition of […] of DMSO stock containing serial dilutions of the test compound (typically starting from a final concentration of 7.5 μM). The plate was preincubated for 10 minutes at 30° C. and the reaction initiated by addition of 5 μl of ATP. Initial reaction rates were determined with a Molecular Devices SpectraMax Plus plate reader over a 10 minute time course. IC50 and Ki data were calculated from non-linear regression analysis using the Prism software package (GraphPad Prism version 3.0cx for Macintosh, GraphPad Software, San Diego Calif., USA).

For test [2], the target named is T1, Itk. The experiment in a line: ITK inhibition assay (UV), standard coupled enzyme assay. The settings on record: 100 μM ATP, 100 nM Itk, 25° C. The protocol: Assays were carried out in a mixture of 20 mM MOPS (pH 7.0), 10 mM MgCl2, 0.1% BSA, 1 mM DTT, 2.5 mM phosphoenolpyruvate, 300 μM NADH, 30 μg/ml pyruvate kinase and 10 μg/ml lactate dehydrogenase. […]
An assay stock buffer solution was prepared containing all of the reagents listed above, with the exception of ATP and the test compound of interest. […] The plate was preincubated for 10 minutes at 25° C. and the reaction initiated by addition of 5 μl of ATP. Initial reaction rates were determined with a Molecular Devices SpectraMax Plus plate reader over a 10 minute time course. IC50 and Ki data were calculated from non-linear regression analysis using the Prism software package (GraphPad Prism version 3.0cx for Macintosh, GraphPad Software, San Diego Calif., USA).

The next test addresses Btk (Homo sapiens, UniProt Q06187). The test can be described thus: BTK inhibition assay, radioactive-phosphate incorporation. The settings on record: 50 μM [γ-33P]ATP, 25 nM Btk, 25° C. As to the method: Compounds were screened for their ability to inhibit Btk using a radioactive-phosphate incorporation assay at Vertex Pharmaceuticals. Assays were carried out in a mixture of 20 mM MOPS (pH 7.0), 10 mM MgCl2, 0.1% BSA and 1 mM DTT. Final substrate concentrations in the assay were 50 μM [γ-33P]ATP (200mCi 33P ATP/mmol ATP, Amersham Pharmacia Biotech, Amersham, UK/Sigma Chemicals) and 2 μM peptide (SAM68 D332-443). Assays were carried out at 25° C. and in the presence of 25 nM Btk. An assay stock buffer solution was prepared containing all of the reagents listed above, with the exception of the peptide and the test compound of interest. 75 μL of the stock solution was placed in a 96 well plate followed by addition of 2 μL of DMSO stock containing serial dilutions of the test compound (typically starting from a final concentration of 15 μM) in duplicate (final DMSO concentration 2%). The plate was preincubated for 15 minutes at 25° C. and the reaction initiated by addition of 25 μL peptide (final concentration 2 μM). Background counts were determined by the addition of […] 0.2M phosphoric acid+0.01% TWEEN to control wells containing assay stock buffer and DMSO prior to initiation with peptide.
The reaction was stopped after 10 minutes by the addition of […] 0.2M phosphoric acid+0.01% TWEEN. A multiscreen phosphocellulose filter 96-well plate (Millipore, Cat no. MAPHN0B50) was pretreated with 100 μL 0.2M phosphoric acid+0.01% TWEEN 20 prior to the addition of […] of the stopped assay mixture. The plate was washed with 4×200 μL 0.2M phosphoric acid+0.01% TWEEN 20. After drying, 30 μL Optiphase ‘SuperMix’ liquid scintillation cocktail (Perkin Elmer) was added to the well prior to scintillation counting (1450 Microbeta Liquid Scintillation Counter, Wallac).
After removing mean background values for all of the data points, Ki(app) data were calculated from non-linear regression analysis using the Prism software package (GraphPad Prism version 3.0cx for Macintosh, GraphPad Software, San Diego Calif., USA).

Values joined by “and” are separate entries in the source; they are usually repeats but may differ in a detail not shown here. Equal values may be shown once.

Sequence of Btk (Q06187 whole entry, species assumed): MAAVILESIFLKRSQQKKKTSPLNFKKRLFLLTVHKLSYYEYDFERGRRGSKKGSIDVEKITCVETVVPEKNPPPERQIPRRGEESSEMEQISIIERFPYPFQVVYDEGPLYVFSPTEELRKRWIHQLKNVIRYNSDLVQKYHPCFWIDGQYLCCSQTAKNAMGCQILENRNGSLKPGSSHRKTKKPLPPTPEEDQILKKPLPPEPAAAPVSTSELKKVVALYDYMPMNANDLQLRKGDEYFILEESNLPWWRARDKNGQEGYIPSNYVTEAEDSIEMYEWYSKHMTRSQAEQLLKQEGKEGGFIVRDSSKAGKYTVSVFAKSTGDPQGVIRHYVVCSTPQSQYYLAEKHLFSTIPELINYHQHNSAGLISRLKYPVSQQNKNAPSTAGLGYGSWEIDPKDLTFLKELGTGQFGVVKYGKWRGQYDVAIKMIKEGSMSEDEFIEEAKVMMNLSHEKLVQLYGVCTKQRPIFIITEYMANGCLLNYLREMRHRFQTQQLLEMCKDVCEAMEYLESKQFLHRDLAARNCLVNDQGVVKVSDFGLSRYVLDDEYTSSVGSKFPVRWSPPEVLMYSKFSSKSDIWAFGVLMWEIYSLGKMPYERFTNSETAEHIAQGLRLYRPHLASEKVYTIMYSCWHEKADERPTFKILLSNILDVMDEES

For the molecule `CC(C)(C)c1ccc(C(=O)Nc2cc(-c3ccncc3)c[nH]c2=O)cc1` [Compound I-11, 4-tert-Butyl-N-(6-oxo-1,6-dihydro-[3,4]bipyridinyl-5-yl)-benzamide], the Ki (usually the equilibrium dissociation constant of an inhibitor or competing ligand from its target) on Itk [1] is 100 to 1000 nM; on Rlk, above 1000 nM; at Itk [2], 100 to 1000 nM.
As for `CNc1cccc(-c2c[nH]c(=O)c(NC(=O)c3ccc(C(C)(C)C)cc3)c2)n1` [II-7], the Ki on Itk [1] was 100 to 1000 nM; on Rlk, above 1000 nM; on Itk [2] it was 100 to 1000 nM.
Turning to `CNc1cc(-c2c[nH]c(=O)c(NC(=O)c3ccc(C(C)(C)C)cc3)c2)nc(SC)n1` [II-41], the Ki on Itk [1] was 100 to 1000 nM; at Rlk it was above 1000 nM; at Itk [2] it was 100 to 1000 nM.
Take `CNc1ccc(C)c(-c2c[nH]c(=O)c(NC(=O)c3ccc(C(C)(C)C)cc3)c2)c1` [II-43]: the Ki at Itk [1] was 100 to 1000 nM; on Btk it was above 500 nM.
On the same counts, the results for `CNCCNc1cccc(-c2c[nH]c(=O)c(NC(=O)c3ccc(N4CCCCC4)cc3)c2)n1` [II-51] are below 100 nM and below 500 nM.
Consider `CN(C)CCNc1nccc(-c2c[nH]c(=O)c(NC(=O)c3ccc(N4CCCCC4)cc3)c2)n1` [II-58], for which the inhibition constant Ki at Itk [1] is below 100 nM; on Btk, below 500 nM.
Regarding `CN(C)CCN(C)c1nccc(-c2c[nH]c(=O)c(NC(=O)c3ccc(N4CCCCC4)cc3)c2)n1` [II-61], the Ki at Itk [1] was 100 to 1000 nM; at Btk it was > 500 nM and < 500 nM.
As to `CNCCNc1nccc(-c2c[nH]c(=O)c(NC(=O)c3ccc(N4CCCCC4)cc3)c2)n1` [II-63], the values for the Ki on Itk [1] and at Btk were below 100 nM and below 500 nM, respectively.
On to `CNc1nccc(-c2c[nH]c(=O)c(NC(=O)c3ccc(N4CCNCC4)cc3)c2)n1` [II-77], for which the Ki at Itk [1] was below 100 nM; at Rlk, below 1000 nM; at Btk, below 500 nM.
Take `CNc1nccc(-c2c[nH]c(=O)c(NC(=O)c3ccc(N4CCN(C(C)C)CC4)cc3)c2)n1` [II-78]: the inhibitory constant (Ki) on Itk [1] is below 100 nM; at Rlk it was below 1000 nM; at Btk it was below 500 nM.
As for `CNc1nccc(-c2c[nH]c(=O)c(NC(=O)c3ccc(N4CCC[C@H]4CN4CCCC4)cc3)c2)n1` [II-80], the values for the Ki on Itk [1], on Rlk and at Btk were below 100 nM, below 1000 nM and below 500 nM, respectively.
In the case of `CC(C)(N)CNc1cccc(-c2c[nH]c(=O)c(NC(=O)c3ccc(N4CCCCC4)cc3)c2)n1` [II-112], the Ki was below 100 nM on Itk [1], below 1000 nM on Rlk and below 500 nM on Btk.
In the case of `CNc1cncc(-c2c[nH]c(=O)c(NC(=O)c3ccc(N4CCCCC4)cc3)c2)n1` [II-114], the Ki at Rlk is above 1000 nM; at Btk, above 500 nM.
Take `CC(O)[C@@H](CO)Nc1cccc(-c2c[nH]c(=O)c(NC(=O)c3ccc(N4CCCCC4)cc3)c2)n1` (stereo partly drawn) [II-149]: the Ki is 100 to 1000 nM at Itk [1], above 1000 nM at Rlk and above 500 nM at Btk.
